*1 amine or outer side, *2 acyl side, *3 side chain or, on linkers, in order; H or OH if unused. Where a SMILES comes first, the peptide text is derived from it. Bridges are numbered along the chain shown (N, C = ends). [ ]: non-standard residue; d: D form. The star is where a group is joined. hPhe(3-Cl-4-CF3) = N[C@@H](CCc1ccc(C(F)(F)F)c(Cl)c1)C(=O)O; X40 = CC(C)CN([C@@H](Cc1ccc(C(F)(F)F)cc1)C(=O)[*:2])[*:1]; X17 = CCCCN([C@@H](Cc1ccc(C(F)(F)F)cc1)C(=O)[*:2])[*:1]; X36 = Cc1ccc(C[C@@H](C(=O)[*:2])N(CCC(F)(F)F)[*:1])cc1; X41 = Cc1ccc(C[C@@H](C(=O)[*:2])N(CC2CCCCC2)[*:1])cc1; X20 = Cc1ccc(C[C@@H](C(=O)[*:2])N(CC2CCCC2)[*:1])cc1; X42 = Cc1ccc(C[C@@H](C(=O)[*:2])N(CC2CCC2)[*:1])cc1; X28 = COCCCN([C@@H](Cc1ccc(C)cc1)C(=O)[*:2])[*:1]; X30 = C=CCCN([C@@H](Cc1ccc(C)cc1)C(=O)[*:2])[*:1]; X10 = C=CCN([C@@H](Cc1ccc(C)cc1)C(=O)[*:2])[*:1]; X35 = COCCN([C@@H](Cc1ccc(C)cc1)C(=O)[*:2])[*:1]; NMeGly(cPent) = CN[C@H](C(=O)O)C1CCCC1; NMeD = CN[C@@H](CC(=O)O)C(=O)O; NMeL = CN[C@@H](CC(C)C)C(=O)O; Morpholide = C1CN(*)CCO1; NMeA = CN[C@@H](C)C(=O)O; Ac5c = NC1(C(=O)O)CCCC1; Aze = O=C(O)[C@@H]1CCN1; Sar = CNCC(=O)O
Key:
[1] = biological target: GDP-bound KRAS wild-type protein (Homo sapiens, UniProt P01116); assay: Binding to KRAS by surface plasmon resonance (SPR), Single Cycle Kinetics; details: SPR Single Cycle Kinetics, GDP-bound KRAS wild-type protein, 1:1 binding model; read-out: KRAS KD
[2] = biological target: GDP-bound NRAS wild-type protein (Homo sapiens, UniProt P01111); assay: Binding to NRAS by surface plasmon resonance (SPR), Single Cycle Kinetics; details: SPR, GDP-bound NRAS wild-type protein vs GDP-bound KRAS wild-type protein
[3] = biological target: GDP-bound HRAS wild-type protein (Homo sapiens, UniProt P01112); assay: Binding to HRAS by surface plasmon resonance (SPR), Single Cycle Kinetics; details: SPR, GDP-bound HRAS wild-type protein vs GDP-bound KRAS wild-type protein
Sequence of GDP-bound HRAS wild-type protein (P01112 whole entry): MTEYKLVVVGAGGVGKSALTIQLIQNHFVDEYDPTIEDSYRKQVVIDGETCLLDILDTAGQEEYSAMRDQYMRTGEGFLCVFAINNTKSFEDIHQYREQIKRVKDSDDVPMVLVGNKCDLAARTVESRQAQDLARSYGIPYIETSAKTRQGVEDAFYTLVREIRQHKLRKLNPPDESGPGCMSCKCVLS

Sequence of GDP-bound KRAS wild-type protein (P01116 whole entry): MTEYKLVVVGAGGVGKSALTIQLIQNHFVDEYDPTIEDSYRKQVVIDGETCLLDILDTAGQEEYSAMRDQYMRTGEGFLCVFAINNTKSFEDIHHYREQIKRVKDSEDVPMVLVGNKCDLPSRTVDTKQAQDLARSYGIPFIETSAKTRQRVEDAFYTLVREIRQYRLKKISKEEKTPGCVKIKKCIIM
Sequence of GDP-bound NRAS wild-type protein (P01111 whole entry): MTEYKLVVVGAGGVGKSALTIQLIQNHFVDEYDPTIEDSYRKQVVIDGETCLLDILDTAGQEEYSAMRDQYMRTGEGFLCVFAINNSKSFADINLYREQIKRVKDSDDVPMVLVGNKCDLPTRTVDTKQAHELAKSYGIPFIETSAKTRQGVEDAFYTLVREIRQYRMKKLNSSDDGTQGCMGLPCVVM

| SMILES | Kd [1] | NRAS/KRAS (ratio of KD value for NRAS to KD value for KRAS) [2] | HRAS/KRAS (ratio of KD value for HRAS to KD value for KRAS) [3] |
| --- | --- | --- | --- |
| CC[C@H](C)[C@@H]1NC(=O)[C@H](CC(C)C)N(C)C(=O)C[C@@H](C(=O)N2CCOCC2)N(C)C(=O)[C@H](C2CCCC2)N(C)C(=O)C2(CCCC2)NC(=O)[C@@H]2CCCN2C(=O)[C@H](CCc2ccc(C(F)(F)F)c(Cl)c2)NC(=O)CN(C)C(=O)[C@H](Cc2ccc(C)cc2)N(CCOC)C(=O)[C@@H]2CCN2C(=O)[C@H](C)N(C)C1=O [PP0092] ([NMeL]I[NMeA][Aze][X35][Sar][hPhe(3-Cl-4-CF3)]P[Ac5c][NMeGly(cPent)][NMeD]-Morpholide; lactam N-11) | 0.15 nM | C (A compound having a KD ratio of 0.1 or more and less than 3 is denoted as C) | C (A compound having a KD ratio of 0.1 or more and less than 3 is denoted as C) |
| CC[C@H](C)[C@@H]1NC(=O)[C@H](CC(C)C)N(C)C(=O)C[C@@H](C(=O)N2CCOCC2)N(C)C(=O)[C@H](C2CCCC2)N(C)C(=O)C2(CCCC2)NC(=O)[C@@H]2CCCN2C(=O)[C@H](CCc2ccc(C(F)(F)F)c(Cl)c2)NC(=O)CN(C)C(=O)[C@H](Cc2ccc(C)cc2)N(CCCOC)C(=O)[C@@H]2CCN2C(=O)[C@H](C)N(C)C1=O [PP0093] ([NMeL]I[NMeA][Aze][X28][Sar][hPhe(3-Cl-4-CF3)]P[Ac5c][NMeGly(cPent)][NMeD]-Morpholide; lactam N-11) | 0.076 nM | C (A compound having a KD ratio of 0.1 or more and less than 3 is denoted as C) | B (a compound having 3 or more and less than 10 is denoted as B) |
| CC[C@H](C)[C@@H]1NC(=O)[C@H](CC(C)C)N(C)C(=O)C[C@@H](C(=O)N2CCOCC2)N(C)C(=O)[C@H](C2CCCC2)N(C)C(=O)C2(CCCC2)NC(=O)[C@@H]2CCCN2C(=O)[C@H](CCc2ccc(C(F)(F)F)c(Cl)c2)NC(=O)CN(C)C(=O)[C@H](Cc2ccc(C)cc2)N(CC2CCC2)C(=O)CN(C)C(=O)CN(C)C1=O [PP0095] ([NMeL]I[Sar][Sar][X42][Sar][hPhe(3-Cl-4-CF3)]P[Ac5c][NMeGly(cPent)][NMeD]-Morpholide; lactam N-11) | 0.79 nM | C (A compound having a KD ratio of 0.1 or more and less than 3 is denoted as C) | C (A compound having a KD ratio of 0.1 or more and less than 3 is denoted as C) |
| CC[C@H](C)[C@@H]1NC(=O)[C@H](CC(C)C)N(C)C(=O)C[C@@H](C(=O)N2CCOCC2)N(C)C(=O)[C@H](C2CCCC2)N(C)C(=O)C2(CCCC2)NC(=O)[C@@H]2CCCN2C(=O)[C@H](CCc2ccc(C(F)(F)F)c(Cl)c2)NC(=O)CN(C)C(=O)[C@H](Cc2ccc(C)cc2)N(CC2CCCC2)C(=O)CN(C)C(=O)CN(C)C1=O [PP0096] ([NMeL]I[Sar][Sar][X20][Sar][hPhe(3-Cl-4-CF3)]P[Ac5c][NMeGly(cPent)][NMeD]-Morpholide; lactam N-11) | 2.8 nM | C (A compound having a KD ratio of 0.1 or more and less than 3 is denoted as C) | C (A compound having a KD ratio of 0.1 or more and less than 3 is denoted as C) |
| CC[C@H](C)[C@@H]1NC(=O)[C@H](CC(C)C)N(C)C(=O)C[C@@H](C(=O)N2CCOCC2)N(C)C(=O)[C@H](C2CCCC2)N(C)C(=O)C2(CCCC2)NC(=O)[C@@H]2CCCN2C(=O)[C@H](CCc2ccc(C(F)(F)F)c(Cl)c2)NC(=O)CN(C)C(=O)[C@H](Cc2ccc(C)cc2)N(CC2CCCCC2)C(=O)CN(C)C(=O)CN(C)C1=O [PP0097] ([NMeL]I[Sar][Sar][X41][Sar][hPhe(3-Cl-4-CF3)]P[Ac5c][NMeGly(cPent)][NMeD]-Morpholide; lactam N-11) | 9.3 nM | C (A compound having a KD ratio of 0.1 or more and less than 3 is denoted as C) | C (A compound having a KD ratio of 0.1 or more and less than 3 is denoted as C) |
| C=CCN1C(=O)CN(C)C(=O)CN(C)C(=O)[C@H]([C@@H](C)CC)NC(=O)[C@H](CC(C)C)N(C)C(=O)C[C@@H](C(=O)N2CCOCC2)N(C)C(=O)[C@H](C2CCCC2)N(C)C(=O)C2(CCCC2)NC(=O)[C@@H]2CCCN2C(=O)[C@H](CCc2ccc(C(F)(F)F)c(Cl)c2)NC(=O)CN(C)C(=O)[C@@H]1Cc1ccc(C)cc1 [PP0100] ([NMeL]I[Sar][Sar][X10][Sar][hPhe(3-Cl-4-CF3)]P[Ac5c][NMeGly(cPent)][NMeD]-Morpholide; lactam N-11) | 0.19 nM | B (a compound having 3 or more and less than 10 is denoted as B) | C (A compound having a KD ratio of 0.1 or more and less than 3 is denoted as C) |
| C=CCCN1C(=O)CN(C)C(=O)CN(C)C(=O)[C@H]([C@@H](C)CC)NC(=O)[C@H](CC(C)C)N(C)C(=O)C[C@@H](C(=O)N2CCOCC2)N(C)C(=O)[C@H](C2CCCC2)N(C)C(=O)C2(CCCC2)NC(=O)[C@@H]2CCCN2C(=O)[C@H](CCc2ccc(C(F)(F)F)c(Cl)c2)NC(=O)CN(C)C(=O)[C@@H]1Cc1ccc(C)cc1 [PP0101] ([NMeL]I[Sar][Sar][X30][Sar][hPhe(3-Cl-4-CF3)]P[Ac5c][NMeGly(cPent)][NMeD]-Morpholide; lactam N-11) | 0.16 nM | B (a compound having 3 or more and less than 10 is denoted as B) | C (A compound having a KD ratio of 0.1 or more and less than 3 is denoted as C) |
| CC[C@H](C)[C@@H]1NC(=O)[C@H](CC(C)C)N(C)C(=O)C[C@@H](C(=O)N2CCOCC2)N(C)C(=O)[C@H](C2CCCC2)N(C)C(=O)C2(CCCC2)NC(=O)[C@@H]2CCCN2C(=O)[C@H](CCc2ccc(C(F)(F)F)c(Cl)c2)NC(=O)CN(C)C(=O)[C@H](Cc2ccc(C)cc2)N(CCC(F)(F)F)C(=O)CN(C)C(=O)CN(C)C1=O [PP0103] ([NMeL]I[Sar][Sar][X36][Sar][hPhe(3-Cl-4-CF3)]P[Ac5c][NMeGly(cPent)][NMeD]-Morpholide; lactam N-11) | 0.15 nM | B (a compound having 3 or more and less than 10 is denoted as B) | C (A compound having a KD ratio of 0.1 or more and less than 3 is denoted as C) |
| CC[C@H](C)[C@@H]1NC(=O)[C@H](CC(C)C)N(C)C(=O)C[C@@H](C(=O)N2CCOCC2)N(C)C(=O)[C@H](C2CCCC2)N(C)C(=O)C2(CCCC2)NC(=O)[C@@H]2CCCN2C(=O)[C@H](CCc2ccc(C(F)(F)F)c(Cl)c2)NC(=O)CN(C)C(=O)[C@H](Cc2ccc(C)cc2)N(CCOC)C(=O)CN(C)C(=O)CN(C)C1=O [PP0104] ([NMeL]I[Sar][Sar][X35][Sar][hPhe(3-Cl-4-CF3)]P[Ac5c][NMeGly(cPent)][NMeD]-Morpholide; lactam N-11) | 0.25 nM | B (a compound having 3 or more and less than 10 is denoted as B) | C (A compound having a KD ratio of 0.1 or more and less than 3 is denoted as C) |
| CC[C@H](C)[C@@H]1NC(=O)[C@H](CC(C)C)N(C)C(=O)C[C@@H](C(=O)N2CCOCC2)N(C)C(=O)[C@H](C2CCCC2)N(C)C(=O)C2(CCCC2)NC(=O)[C@@H]2CCCN2C(=O)[C@H](CCc2ccc(C(F)(F)F)c(Cl)c2)NC(=O)CN(C)C(=O)[C@H](Cc2ccc(C)cc2)N(CCCOC)C(=O)CN(C)C(=O)CN(C)C1=O [PP0105] ([NMeL]I[Sar][Sar][X28][Sar][hPhe(3-Cl-4-CF3)]P[Ac5c][NMeGly(cPent)][NMeD]-Morpholide; lactam N-11) | 0.14 nM | B (a compound having 3 or more and less than 10 is denoted as B) | C (A compound having a KD ratio of 0.1 or more and less than 3 is denoted as C) |
| CCCCN1C(=O)[C@@H]2CCN2C(=O)[C@H](C)N(C)C(=O)[C@H]([C@@H](C)CC)NC(=O)[C@H](CC(C)C)N(C)C(=O)C[C@@H](C(=O)N2CCOCC2)N(C)C(=O)[C@H](C2CCCC2)N(C)C(=O)C2(CCCC2)NC(=O)[C@@H]2CCCN2C(=O)[C@H](CCc2ccc(C(F)(F)F)c(Cl)c2)NC(=O)CN(C)C(=O)[C@@H]1Cc1ccc(C(F)(F)F)cc1 [PP0106] ([NMeL]I[NMeA][Aze][X17][Sar][hPhe(3-Cl-4-CF3)]P[Ac5c][NMeGly(cPent)][NMeD]-Morpholide; lactam N-11) | 0.19 nM | C (A compound having a KD ratio of 0.1 or more and less than 3 is denoted as C) | B (a compound having 3 or more and less than 10 is denoted as B) |
| CC[C@H](C)[C@@H]1NC(=O)[C@H](CC(C)C)N(C)C(=O)C[C@@H](C(=O)N2CCOCC2)N(C)C(=O)[C@H](C2CCCC2)N(C)C(=O)C2(CCCC2)NC(=O)[C@@H]2CCCN2C(=O)[C@H](CCc2ccc(C(F)(F)F)c(Cl)c2)NC(=O)CN(C)C(=O)[C@H](Cc2ccc(C(F)(F)F)cc2)N(CC(C)C)C(=O)[C@@H]2CCN2C(=O)[C@H](C)N(C)C1=O [PP0107] ([NMeL]I[NMeA][Aze][X40][Sar][hPhe(3-Cl-4-CF3)]P[Ac5c][NMeGly(cPent)][NMeD]-Morpholide; lactam N-11) | 1.7 nM | C (A compound having a KD ratio of 0.1 or more and less than 3 is denoted as C) | C (A compound having a KD ratio of 0.1 or more and less than 3 is denoted as C) |

— patent US20240158446A1, “CYCLIC COMPOUND HAVING SELECTIVE INHIBITORY ACTION ON KRAS OVER HRAS AND NRAS” (CHUGAI SEIYAKU KABUSHIKI KAISHA, priority 2021, published 2024)
